The source of these data is PMC11362529, “Exploring the neuroprotective potential of Nrf2-pathway activators against annonacin toxicity” (Scientific Reports, 2024).

One data set has as its system SRSF2/SC-35. Kind of data set: pSC-35 speckle immunofluorescence. It is filed as cell-based, human. Conditions: 48 h. As to the method:
For immunostaining, cells were seeded in differentiation medium, on 24-well microplates containing PLO/FN-coated 13 mm Ø coverslips, and treated for 48 h as previously described. On the readout day, the medium was removed and cells were fixed, permeabilized and blocked as before. Primary antibody dilutions were made in 1.5% NHS in PBS (Supplementary Table S1) and incubated overnight at 4 °C. On the following day, the coverslips were washed three times with PBS and incubated with host-specific fluorescence secondary antibodies (Supplementary Table S1), for 2 h at RT, protected from light. After another three washes with PBS, cell nuclei were stained with 1:5,000 DAPI (4’,6-diamidino-2-phenylindole, Thermo Fisher Scientific) in PBS, for 15 min at RT. The coverslips were mounted in mowiol and left to dry for 24 h before imaging. Image acquisition for FI quantification was done with a 200 × magnification (20 × objective, 10 × intermediate magnification), or 400x (40 × objective, 10 × intermediate magnification) in the case of pSC-35 and AT8 immunostaining, on a fluorescence microscope Leica-DFC9000GTC (Leica). In the case of phospho-tau AT8, Z-stacks consisting of 18 plane images with a step size of 1 μm were acquired. The image acquisition parameters were identical for all conditions. Quantification of 8-OHdG (8-hydroxyguanosine) FI and tau species was performed using the ImageJ software. Ten-to-fifteen images per condition across triplicates, from different view fields, were used for this purpose. Briefly, TIFF exported images were submitted to background subtraction using the rolling ball method with a radius of 50 pixels. For 8-OHdG analysis, a channel-specific threshold was applied to all images to define the ROI and FI was measured and normalized to the cell number, determined by the DAPI channel. The average value of the different view fields per experimental condition was taken and reported as fold change compared to the control (DMSO-treated) condition. For the analysis of phospho-tau AT270 and pan-tau reactivity, channel specific thresholds were applied to all images. The DAPI channel was used to define nuclei from viable cells, by selecting particles with a size above 15 µm^2 and a circularity of 0.3–1.0. […] These masks were used to quantify the number of somas expressing each of these tau species, as well as the respective FI. The number of AT270-positive somas was divided by the number of pan-tau-positive somas and expressed as a percentage. […] For quantification of pSC-35 and AT8 speckle number and FI, we used CellProfiler™ 4 (https://cellprofiler.org/, Broad Institute Inc., Cambridge, MA, USA) speckle counting pipeline. […]

Another data set has as its system LUHMES cells. The data set can be described thus: Annonacin titration, calcein viability assay. In kind it is cell-based, human. The following applies: 20 nM annonacin, 48 h, glucose-reduced medium. As to the method: Commercial annonacin (Cayman Chemical, Michigan, MI, USA) was diluted in DMSO and stored in small aliquots of 100 µM stock solution at -80 °C. For annonacin titration, LUHMES cells were seeded onto a 48-well microplate and intoxicated on day 6 of differentiation with different concentrations of annonacin, over a period of 48 h, in glucose-reduced differentiation medium of DMEM without glucose (Gibco), supplemented with 2.4 mM glucose, 1% N-2 supplement, 1 µg/ml tetracycline, […] GDNF, and 490 µg/ml dbcAMP to mimic the physiological concentration of glucose in the human brain[44],[45]. Each experimental condition was run in triplicates. Cell viability was measured by calcein viability assay, as detailed below. […]
The calcein AM green dye (Thermo Fisher Scientific) was diluted in DMSO to obtain a 1 mM stock solution. […] Cells were lysed in a 200 µl volume of 1% Triton™ X-100 in PBS (phosphate buffered saline) and the lysate transferred to a 96‐well black plate for the readout. The fluorescence signal was measured on a FLUOstar® Omega plate reader (BMG LabTech, Ortenberg, Germany) at λ Ex/Em = 485/530 nm and data was analyzed with the MARS data analysis software (BMG LabTech). For background correction, we subtracted the background control signal from the measured values of all experimental conditions. […]

Each structure is given as a SMILES string.

Take `CCCCCCCCCCCC[C@@H](O)[C@H]1CC[C@H]([C@H](O)CCCC[C@H](O)CCCCC[C@@H](O)CC2=CC(C)OC2=O)O1` (some centres unmarked) [annonacin]: in the data set on SRSF2/SC-35 (20 nM annonacin alone), the “number of pSC-35 speckles per nucleus” value is “no changes in the number of pSC-35 speckles per nucleus” and the pSC-35 fluorescence intensity result is on record as “no changes”. In addition, the cell viability entry in the data set on LUHMES cells is listed as “approximately 50 % of the untreated condition”.

Consider `O=C1[C@H](CC[C@H](O)c2ccc(F)cc2)[C@@H](c2ccc(O)cc2)N1c1ccc(F)cc1` [ezetimibe], for which, in the data set on SRSF2/SC-35 (15 μM ezetimibe + 20 nM annonacin), the “number of pSC-35 speckles per nucleus” value is reported as “non-significant reduction of the number of speckles per nucleus”. Moreover, in the data set on SRSF2/SC-35 (15 μM ezetimibe + 20 nM annonacin, vs control), the “pSC-35 fluorescence intensity per nucleus” value is given as “twofold”.
